Source: patent US10072026B2, “Crystalline form of 3-((1R,3s,5S)-3-((7-((5-methyl-1H-pyrazol-3-yl)amino)-1,6-naphthyridin-5-yl)amino)-8-azabicyclo[3.2.1]octan-8-yl)propanenitrile” (priority 2015, dated 2018)
Read-outs that look alike come from different tables or passages of the source.

Assays:
JAK1 = JAK1 (Homo sapiens (Human), UniProt P23458); assay: LanthaScreen JAK biochemical assay (JAK1)
JAK2 = JAK2 (Homo sapiens (Human), UniProt O60674); assay: LanthaScreen JAK biochemical assay (JAK2)
[1] = system: IL-4 induced STAT6 phosphorylation in THP-1 human monocytic cells; assay: Cellular JAK potency assay, THP-1; details: for IC50: Homo sapiens, THP-1, read-out: THP-1 IL4 pIC50 (converted); for THP-1 IL4 pIC50: IL-4 induced STAT6 phosphorylation, THP-1 cells
[2] = read-out: JAK 1 (pKi) (converted)
[3] = read-out: JAK 2 (pKi) (converted)

Sequence of JAK1 (P23458 whole entry): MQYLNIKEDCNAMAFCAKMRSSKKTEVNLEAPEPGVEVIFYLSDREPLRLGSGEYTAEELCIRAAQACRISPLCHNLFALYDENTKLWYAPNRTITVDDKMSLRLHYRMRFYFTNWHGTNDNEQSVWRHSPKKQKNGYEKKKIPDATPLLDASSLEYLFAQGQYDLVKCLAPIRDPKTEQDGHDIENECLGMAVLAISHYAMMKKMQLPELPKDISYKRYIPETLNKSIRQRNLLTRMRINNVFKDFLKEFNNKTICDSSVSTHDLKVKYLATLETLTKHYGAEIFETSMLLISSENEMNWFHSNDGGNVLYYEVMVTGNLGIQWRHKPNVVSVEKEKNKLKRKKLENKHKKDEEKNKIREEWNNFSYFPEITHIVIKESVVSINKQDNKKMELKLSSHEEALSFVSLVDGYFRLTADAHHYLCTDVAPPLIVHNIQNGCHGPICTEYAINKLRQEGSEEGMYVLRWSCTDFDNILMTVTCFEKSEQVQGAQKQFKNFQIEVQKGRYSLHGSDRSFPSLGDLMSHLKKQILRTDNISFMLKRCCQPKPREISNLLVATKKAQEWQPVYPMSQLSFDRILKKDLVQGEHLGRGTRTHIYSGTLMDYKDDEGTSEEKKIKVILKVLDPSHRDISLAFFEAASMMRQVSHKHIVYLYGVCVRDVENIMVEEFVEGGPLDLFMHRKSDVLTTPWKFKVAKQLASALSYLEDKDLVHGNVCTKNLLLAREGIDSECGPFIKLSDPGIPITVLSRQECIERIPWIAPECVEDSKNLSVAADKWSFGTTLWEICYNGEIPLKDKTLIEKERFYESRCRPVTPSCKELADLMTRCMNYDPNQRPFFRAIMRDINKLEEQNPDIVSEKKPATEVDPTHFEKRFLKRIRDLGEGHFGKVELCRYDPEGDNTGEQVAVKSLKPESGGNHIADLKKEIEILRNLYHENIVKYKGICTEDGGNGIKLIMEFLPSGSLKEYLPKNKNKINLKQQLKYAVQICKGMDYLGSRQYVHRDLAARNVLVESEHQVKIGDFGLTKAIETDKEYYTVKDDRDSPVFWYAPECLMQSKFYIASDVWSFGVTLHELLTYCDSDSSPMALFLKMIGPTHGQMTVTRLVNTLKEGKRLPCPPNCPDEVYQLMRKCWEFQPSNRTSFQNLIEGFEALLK
Sequence of JAK2 (O60674 whole entry): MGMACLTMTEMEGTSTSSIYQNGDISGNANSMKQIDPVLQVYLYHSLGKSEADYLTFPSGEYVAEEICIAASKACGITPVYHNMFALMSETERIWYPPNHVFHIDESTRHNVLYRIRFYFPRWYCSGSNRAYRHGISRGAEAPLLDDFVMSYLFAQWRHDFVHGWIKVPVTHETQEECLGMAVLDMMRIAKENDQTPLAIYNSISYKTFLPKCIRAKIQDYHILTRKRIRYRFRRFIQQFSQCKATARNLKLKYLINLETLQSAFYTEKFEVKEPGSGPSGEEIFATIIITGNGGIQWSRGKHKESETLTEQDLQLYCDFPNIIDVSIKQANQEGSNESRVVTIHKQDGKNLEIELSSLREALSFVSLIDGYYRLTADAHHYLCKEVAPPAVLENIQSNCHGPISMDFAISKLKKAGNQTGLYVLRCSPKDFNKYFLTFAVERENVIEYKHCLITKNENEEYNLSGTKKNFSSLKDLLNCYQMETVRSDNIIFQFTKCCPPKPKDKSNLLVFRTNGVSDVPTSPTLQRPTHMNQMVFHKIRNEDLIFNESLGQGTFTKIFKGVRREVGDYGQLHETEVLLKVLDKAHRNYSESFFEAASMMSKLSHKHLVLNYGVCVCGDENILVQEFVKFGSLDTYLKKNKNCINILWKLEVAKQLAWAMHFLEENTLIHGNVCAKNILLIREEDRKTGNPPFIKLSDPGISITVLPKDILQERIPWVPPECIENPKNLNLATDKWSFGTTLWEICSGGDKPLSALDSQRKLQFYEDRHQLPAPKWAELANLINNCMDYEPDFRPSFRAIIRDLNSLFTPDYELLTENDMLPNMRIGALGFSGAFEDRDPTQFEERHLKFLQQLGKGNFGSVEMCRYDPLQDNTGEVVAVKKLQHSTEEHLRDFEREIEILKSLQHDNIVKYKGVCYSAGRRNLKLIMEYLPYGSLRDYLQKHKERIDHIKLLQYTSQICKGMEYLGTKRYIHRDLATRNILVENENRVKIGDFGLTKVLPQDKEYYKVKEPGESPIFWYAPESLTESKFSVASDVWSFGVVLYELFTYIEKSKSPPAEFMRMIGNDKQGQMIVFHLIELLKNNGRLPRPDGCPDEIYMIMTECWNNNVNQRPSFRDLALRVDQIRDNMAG

Row | Structure (SMILES) | JAK 2 (pKi) (JAK2) | THP-1 IL4 pIC50 [1] | JAK 1 (pKi) (JAK1) | further results
1 | COC(=O)c1cnc2cc(Nc3cc(C)[nH]n3)nc(N[C@@H]3C[C@H]4CC[C@@H](C3)N4C(=O)C(F)F)c2c1 [Example 6-37] |  |  |  | Ki (JAK1; [2]): 0.1 to 1 nM; Ki (JAK2; [3]): 0.1 to 1 nM
2 | Cc1cc(Nc2cc3ncccc3c(N[C@@H]3C[C@H]4CC[C@@H](C3)N4S(=O)(=O)N3CCC3)n2)n[nH]1 [Example 4-6] |  |  |  | Ki (JAK1; [2]): 0.1 to 1 nM; Ki (JAK2): 0.1 to 1 nM; IC50 [1]: < 31.6 nM
3 | CCOC(=O)N1[C@@H]2CC[C@H]1C[C@H](Nc1nc(Nc3cc(C)[nH]n3)cc3ncccc13)C2 [Example 3-1] |  |  |  | Ki (JAK1; [2]): 0.1 to 1 nM; Ki (JAK2; [3]): 0.1 to 1 nM; IC50 [1]: < 31.6 nM
4 | Cc1cc(Nc2cc3nc(CN4CCOCC4)ccc3c(N[C@@H]3C[C@H]4CC[C@@H](C3)N4CCC#N)n2)n[nH]1 [Example 5-18] | A (A represents a pKi value≥10 (Ki≤0.1 nM)) | B (B represents a pEC50 value between 6.7 and 7.5 (EC50 between 200 nM and 32 nM)) |  | 
5 | Cc1cc(Nc2cc3ncccc3c(N[C@@H]3C[C@H]4CC[C@@H](C3)N4CC(=O)OC(C)C)n2)n[nH]1 [Example 1-4] | B (B represents a pKi value between 9 and 10 (Ki between 1 nM and 0.1 nM)) | B (B represents a pEC50 value between 6.7 and 7.5 (EC50 between 200 nM and 32 nM)) | B (B represents a pKi value between 9 and 10 (Ki between 1 nM and 0.1 nM)) | 
6 | COC(=O)C1(C(=O)N2[C@@H]3CCC[C@H]2C[C@H](Nc2nc(Nc4cc(C)[nH]n4)cc4ncccc24)C3)CC1 [Example 2-21] | B (B represents a pKi value between 9 and 10 (Ki between 1 nM and 0.1 nM)) | B (B represents a pEC50 value between 6.7 and 7.5 (EC50 between 200 nM and 32 nM)) |  | 
7 | Cc1cc(Nc2cc3ncccc3c(N[C@@H]3C[C@H]4CC[C@@H](C3)N4CC(=O)OC(C)(C)C)n2)n[nH]1 [Example 1-5] | B (B represents a pKi value between 9 and 10 (Ki between 1 nM and 0.1 nM)) | B (B represents a pEC50 value between 6.7 and 7.5 (EC50 between 200 nM and 32 nM)) | B (B represents a pKi value between 9 and 10 (Ki between 1 nM and 0.1 nM)) | 
8 | Cc1cc(Nc2cc3ncc(S(C)(=O)=O)cc3c(N[C@@H]3C[C@H]4CC[C@@H](C3)N4C(=O)C(F)F)n2)n[nH]1 [Example 6-52] |  |  |  | Ki (JAK1): 0.1 to 1 nM; Ki (JAK2; [3]): 0.1 to 1 nM; IC50 [1]: > 200 nM
9 | COC(=O)CN1[C@@H]2CCC[C@H]1C[C@H](Nc1nc(Nc3cc(C)[nH]n3)cc3ncccc13)C2 [Example 1-32] | A (A represents a pKi value≥10 (Ki≤0.1 nM)) | C (C represents a pEC50 value<6.7 (EC50>200 nM)) |  | 
10 | Cc1cc(Nc2cc3ncccc3c(N[C@@H]3C[C@H]4CC[C@@H](C3)N4S(=O)(=O)C3CNC3)n2)n[nH]1 [Example 4-9] |  |  |  | Ki (JAK1): 0.1 to 1 nM; Ki (JAK2; [3]): 0.1 to 1 nM; IC50 [1]: > 200 nM
11 | Cc1cc(Nc2cc3ncccc3c(N[C@@H]3C[C@H]4CC[C@@H](C3)N4C3CCOC3=O)n2)n[nH]1 (stereo partly shown) [Example 1-27] | B (B represents a pKi value between 9 and 10 (Ki between 1 nM and 0.1 nM)) |  | B (B represents a pKi value between 9 and 10 (Ki between 1 nM and 0.1 nM)) | 
12 | Cc1ccc(S(=O)(=O)N2[C@@H]3CCC[C@H]2C[C@H](Nc2nc(Nc4cc(C)[nH]n4)cc4ncccc24)C3)cn1 [Example 4-25] | B (B represents a pKi value between 9 and 10 (Ki between 1 nM and 0.1 nM)) | A (A represents a pEC50 value≥7.5 (EC50≤32 nM)) | B (B represents a pKi value between 9 and 10 (Ki between 1 nM and 0.1 nM)) | 
13 | Cc1cc(Nc2cc3ncccc3c(N[C@@H]3C[C@H]4CCC[C@@H](C3)N4S(=O)(=O)Cc3ccccc3)n2)n[nH]1 [Example 4-24] | B (B represents a pKi value between 9 and 10 (Ki between 1 nM and 0.1 nM)) | B (B represents a pEC50 value between 6.7 and 7.5 (EC50 between 200 nM and 32 nM)) | B (B represents a pKi value between 9 and 10 (Ki between 1 nM and 0.1 nM)) | 
14 | Cc1cc(Nc2cc3ncccc3c(N[C@@H]3C[C@H]4CCC[C@@H](C3)N4C[C@H]3CCC(=O)O3)n2)n[nH]1 [Example 1-57] | B (B represents a pKi value between 9 and 10 (Ki between 1 nM and 0.1 nM)) | B (B represents a pEC50 value between 6.7 and 7.5 (EC50 between 200 nM and 32 nM)) | B (B represents a pKi value between 9 and 10 (Ki between 1 nM and 0.1 nM)) | 
15 | CCC(=O)N1[C@@H]2CCC[C@H]1C[C@H](Nc1nc(Nc3cc(C)[nH]n3)cc3ncccc13)C2 [Example 2-15] | B (B represents a pKi value between 9 and 10 (Ki between 1 nM and 0.1 nM)) | A (A represents a pEC50 value≥7.5 (EC50≤32 nM)) | B (B represents a pKi value between 9 and 10 (Ki between 1 nM and 0.1 nM)) | 
16 | Cc1cc(Nc2cc3ncccc3c(N[C@@H]3C[C@H]4CC[C@@H](C3)N4Cc3cccnc3)n2)n[nH]1 [Example 1-16] | B (B represents a pKi value between 9 and 10 (Ki between 1 nM and 0.1 nM)) | B (B represents a pEC50 value between 6.7 and 7.5 (EC50 between 200 nM and 32 nM)) | B (B represents a pKi value between 9 and 10 (Ki between 1 nM and 0.1 nM)) | 
